Reference: the supplement of paper PMC10307832

Legend:
Assay in all cases: relative viability (nuclei count vs DMSO), 5 days (fraction); higher = more cells survive
[1] = compound: CC(O)(CS(=O)(=O)c1ccc(F)cc1)C(=O)Nc1ccc(C#N)c(C(F)(F)F)c1 [Bicalutamide] + O=C(CCCCCCC(=O)Nc1ccccc1)NO [Vorinostat] (partner 1 µM)
Procedure, shortened: (§1)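 Dosing by pin tool came one day after lung cancer cell lines were seeded in 1536-well plates, using either one drug or a fixed anchor-drug dose plus five library-drug doses (not always all listed) in √10 steps. After 5 days, nuclei were counted on 4× images. Relative viability is treated-well nuclei count divided by vehicle-well nuclei count, and values are medians of duplicate plates.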

[2] = compound: C(C(=O)C(=O)O)Br [Bromopyruvate] + C[C@@H](Oc1cc(-c2cnn(C3CCNCC3)c2)cnc1N)c1c(Cl)ccc(F)c1Cl [Crizotinib] (partner 1 µM)
Procedure, shortened: as §1

[3] = compound: CC(O)(CS(=O)(=O)c1ccc(F)cc1)C(=O)Nc1ccc(C#N)c(C(F)(F)F)c1 [Bicalutamide] + Cc1cc(Nc2cc(N3CCN(C)CC3)nc(Sc3ccc(NC(=O)C4CC4)cc3)n2)n[nH]1 [Tozasertib] (partner 0.1 µM)
Procedure, shortened: as §1

[4] = compound: C(C(=O)C(=O)O)Br [Bromopyruvate] + Nc1ncn([C@H]2C[C@H](O)[C@@H](CO)O2)c(=O)n1 [Decitabine] (partner 2 µM)
Procedure, shortened: as §1

| Cell Line | relative viability ([1]; first compound 0.08 µM) | relative viability ([1]; first compound 0.253 µM) | relative viability ([1]; first compound 0.8 µM) | relative viability ([1]; first compound 2.53 µM) | relative viability ([2]; first compound 1 µM) | relative viability ([2]; first compound 3.162 µM) | relative viability ([2]; first compound 10 µM) | relative viability ([2]; first compound 31.62 µM) | relative viability ([2]; first compound 100 µM) | relative viability ([3]; first compound 0.08 µM) | relative viability ([3]; first compound 0.253 µM) | relative viability ([3]; first compound 0.8 µM) | relative viability ([3]; first compound 2.53 µM) | relative viability ([4]; first compound 1 µM) | relative viability ([4]; first compound 3.162 µM) | relative viability ([4]; first compound 10 µM) | relative viability ([4]; first compound 31.62 µM) | relative viability ([4]; first compound 100 µM) |
| --- | --- | --- | --- | --- | --- | --- | --- | --- | --- | --- | --- | --- | --- | --- | --- | --- | --- | --- |
| NCI-H2170 | 0.794 | 0.741 | 0.867 | 0.803 | 1.33 | 1.24 | 1.2 | 1.29 | 1.15 | 0.728 | 0.696 | 0.716 | 0.739 | 0.471 | 0.464 | 0.424 | 0.44 | 0.438 |
| NCI-H2087 | 0.668 | 0.643 | 0.812 | 0.856 | 0.9 | 0.957 | 0.661 | 0.78 | 0.78 | 0.234 | 0.226 | 0.262 | 0.219 | 0.307 | 0.318 | 0.248 | 0.305 | 0.259 |
| NCI-H838 | 0.72 | 0.707 | 0.749 | 0.564 | 0.959 | 0.881 | 0.825 | 0.871 | 0.854 | 0.274 | 0.279 | 0.289 | 0.23 | 0.485 | 0.461 | 0.408 | 0.405 | 0.457 |
| NCI-H460 | 0.763 | 0.439 | 0.92 | 0.779 | 0.771 | 0.921 | 1.09 | 0.919 | 0.714 | 0.521 | 0.39 | 0.434 | 0.52 | 0.484 | 0.459 | 0.679 | 0.46 | 0.468 |
| LOU-NH91 | 0.985 | 0.723 | 0.971 | 0.893 | 0.769 | 0.708 | 0.712 | 0.76 | 0.724 | 0.696 | 0.516 | 0.798 | 0.662 | 0.868 | 0.79 | 0.799 | 0.876 | 0.861 |
| NCI-H322M | 0.858 | 0.898 | 0.995 | 1.11 | 0.958 | 0.804 | 0.948 | 0.806 | 0.943 | 0.522 | 0.478 | 0.51 | 0.504 | 0.705 | 0.717 | 0.747 | 0.758 | 0.669 |
| NCI-H520 | 0.831 | 0.728 | 0.881 | 0.596 | 0.716 | 0.707 | 0.737 | 0.685 | 0.673 | 0.433 | 0.414 | 0.539 | 0.458 | 0.576 | 0.486 | 0.473 | 0.531 | 0.414 |
| NCI-H661 | 0.768 | 0.805 | 0.771 | 0.806 | 1.05 | 0.897 | 0.854 | 1.12 | 1.11 | 0.367 | 0.355 | 0.362 | 0.359 | 0.505 | 0.571 | 0.654 | 0.546 | 0.523 |
| NCI-H727 | 1.38 | 1.08 | 1.24 | 1.19 | 0.996 | 0.89 | 0.844 | 0.739 | 0.83 | 0.615 | 0.619 | 0.591 | 0.603 | 0.815 | 1.09 | 0.966 | 0.915 | 0.871 |
| NCI-H1734 | 0.85 | 0.701 | 1.05 | 0.673 | 0.67 | 0.68 | 0.803 | 0.67 | 0.659 | 0.249 | 0.244 | 0.268 | 0.279 | 0.505 | 0.507 | 0.629 | 0.502 | 0.457 |
| LXF-289 | 0.818 | 0.734 | 0.797 | 0.698 | 0.841 | 0.807 | 0.786 | 0.791 | 0.833 | 0.206 | 0.182 | 0.198 | 0.157 | 0.398 | 0.417 | 0.419 | 0.388 | 0.397 |
| H3255 | 0.808 | 0.755 | 0.969 | 0.69 | 0.929 | 0.987 | 0.915 | 0.803 | 0.973 | 0.743 | 0.439 |  | 0.604 | 0.514 | 0.705 | 0.794 | 0.609 | 0.622 |
| 201T | 1.11 | 0.957 | 1.05 | 0.977 | 1.06 | 1.03 | 1.02 | 1.02 | 1.08 | 1.01 | 0.917 | 0.962 | 0.793 | 0.882 | 0.835 | 0.849 | 0.85 | 0.928 |
| HOP-62 | 0.783 | 0.606 | 0.689 | 0.52 | 0.923 | 0.876 |  | 0.952 | 0.65 | 0.419 | 0.402 | 0.425 | 0.34 | 0.217 | 0.229 | 0.186 | 0.211 | 0.138 |
| NCI-H596 | 0.679 | 0.571 | 0.66 | 0.648 | 0.98 | 1 | 1.07 | 0.952 | 1.17 | 0.897 | 0.82 | 0.998 | 0.989 | 1.64 | 1.11 | 0.974 | 1.05 | 1.03 |
| NCI-H1755 | 0.727 | 0.748 | 0.916 | 0.635 | 0.973 | 0.797 | 0.884 | 0.881 | 1 | 0.458 | 0.625 | 0.576 | 0.599 | 0.793 | 0.684 | 0.721 | 0.672 | 0.659 |
| NCI-H2085 | 0.829 | 0.741 | 0.816 | 0.687 | 0.823 | 0.984 | 0.874 | 0.778 | 0.797 | 0.913 | 0.81 | 0.805 | 0.804 | 0.626 | 0.557 | 0.529 | 0.593 | 0.526 |
| NCI-H2023 | 0.69 | 0.608 | 0.893 | 0.349 | 0.685 | 0.658 | 0.618 | 0.785 | 0.542 | 0.448 | 0.376 | 0.306 | 0.249 | 0.221 | 0.205 | 0.29 | 0.229 | 0.194 |
